Measured values published in US20130217702A1 (Richter Gedeon Nyrt., priority 2010, published 2013).

Key:
[1] = target: T1, human recombinant bradykinin B1 receptor (Homo sapiens, UniProt P46663); assay: Human recombinant bradykinin B1 receptor competitive radioligand binding; settings: hB1 expressed in CHO cells, [3H]-[Des-Arg10] Kallidin radioligand; read-out: B1 binding
T1 construct: host or cells: CHO cells, clone hB1-A5
T1 sequence (P46663 1-353): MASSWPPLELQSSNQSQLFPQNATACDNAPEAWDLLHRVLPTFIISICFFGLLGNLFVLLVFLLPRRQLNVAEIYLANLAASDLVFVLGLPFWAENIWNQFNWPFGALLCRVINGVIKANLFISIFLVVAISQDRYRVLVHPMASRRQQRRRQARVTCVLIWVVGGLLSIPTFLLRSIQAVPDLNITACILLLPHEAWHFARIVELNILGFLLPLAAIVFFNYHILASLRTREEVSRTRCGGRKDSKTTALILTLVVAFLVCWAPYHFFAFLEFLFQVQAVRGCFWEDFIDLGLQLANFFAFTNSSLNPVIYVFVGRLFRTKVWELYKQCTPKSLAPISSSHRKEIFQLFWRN
Summary of the method: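 Competition radioligand binding on CHO-expressed hB1 membranes, using [3,4-prolyl-3,4-^3H(N)]-[Des-Arg^10] Kallidin as tracer, 15 min at 25° C. Excess Lys-des-Arg^9-Bradykinin (10 μM) set nonspecific binding. Sigmoidal fits of at least seven concentrations gave IC50, converted to Ki via Cheng-Prusoff; KD from Scatchard.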

[2] = target: T2, recombinant human B1 receptors (Homo sapiens, UniProt P46663); assay: Functional assay: antagonist potency by cytosolic calcium measurement (plate reader fluorimeter) in CHO-B1 cells, agonist LysDABK; assay type: cell-based; settings: CHO-B1 cells, inhibition of LysDABK (EC80)-evoked [Ca2+]i elevation; read-out: B1 func.
T2 construct: host or cells: CHO (CHO-B1)
T2 sequence (P46663 1-353): T1 sequence (P46663 1-353)
Summary of the method: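 IC50 is the concentration giving half-maximal inhibition of the LysDABK (EC80) calcium response, fitted from at least three experiments. CHO cells stably expressing human B1 were dye-loaded, exposed to compound for 20-25 min, then read by fluo-4 fluorescence (ΔF/F) at 37 °C.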

## COC(=O)c1c(Cl)c2ccccc2n1-c1ccc(CNC(=O)C2(NC(=O)c3cc(OC)no3)CC2)cc1 [Example 11, 3-Chloro-1-{4-[({1-[(3-methoxy-isoxazole-5-carbonyl)-amino]-cyclopropane-carbonyl}-amino)-methyl]-phenyl}-1H-indole-2-carboxylic acid methyl ester]
[1]
  Ki: < 0.02 µM
[2]
  IC50: < 0.02 µM

## Cc1nc(-c2c(Cl)c3ccccc3n2-c2ccc(CNC(=O)C3(NC(=O)C4CCC(=O)N4)CC3)cc2)no1 (stereo not drawn) [Example 168, 5-Oxo-pyrrolidine-2-carboxylic acid (1-{4-[3-chloro-2-(5-methyl-[1,2,4]oxadiazol-3-yl)-indol-1-yl]-benzylcarbamoyl}-cyclopropyl)-amide]
[1]
  Ki: < 0.02 µM
[2]
  IC50: 0.02 to 0.1 µM

## COc1cc(C(=O)NC2(C(=O)NCc3ccc(-n4c(-c5nnn(C)n5)c(Cl)c5cc(Cl)ccc54)cc3)CC2)on1 [Example 18, 3-Methoxy-isoxazole-5-carboxylic acid (1-{4-[3,5-dichloro-2-(2-methyl-2H-tetrazol-5-yl)-indol-1-yl]-benzylcarbamoyl}-cyclopropyl)-amide]
[1]
  Ki: < 0.02 µM
[2]
  IC50: < 0.02 µM

## COc1cc(C(=O)NC2(C(=O)NCc3ccc(-n4c(-c5nc(C)no5)cc5ccccc54)cn3)CC2)on1 [Example 56, 3-Methoxy-isoxazole-5-carboxylic acid [1-({5-[2-(3-methyl-[1,2,4]oxadiazol-5-yl)-indol-1-yl]-pyridin-2-ylmethyl}-carbamoyl)-cyclopropyl]-amide]
[1]
  Ki: 0.1 to 0.5 µM
[2]
  IC50: 0.1 to 0.5 µM

## Cc1nc(-c2c(Cl)c3ccccc3n2-c2ccc(CNC(=O)C3(NC(=O)c4cccc(F)c4)CC3)cc2)no1 [Example 178, N-(1-{4-[3-Chloro-2-(5-methyl-[1,2,4]oxadiazol-3-yl)-indol-1-yl]-benzylcarbamoyl}-cyclopropyl)-3-fluoro-benzamide]
[1]
  Ki: < 0.02 µM
[2]
  IC50: < 0.02 µM

## COc1ccc2c(c1)c(Cl)c(-c1nc(C)no1)n2-c1ccc(CNC(=O)C2(NC(=O)c3cncc(C(F)(F)F)c3)CC2)cc1 [Example 50, N-(1-{4-[3-Chloro-5-methoxy-2-(3-methyl-[1,2,4]oxadiazol-5-yl)-indol-1-yl]-benzyl-carbamoyl}-cyclopropyl)-5-trifluoromethyl-nicotinamide]
[1]
  Ki: < 0.02 µM
[2]
  IC50: < 0.02 µM

## Cc1cc(C(=O)NC2(C(=O)NCc3ccc(-n4c(-c5noc(C)n5)c(Cl)c5cc(Cl)ccc54)cc3)CC2)no1 [Example 73, 5-Methyl-isoxazole-3-carboxylic acid (1-{4-[3,5-dichloro-2-(5-methyl-[1,2,4]oxadiazol-3-yl)-indol-1-yl]-benzylcarbamoyl}-cyclopropyl)-amide]
[1]
  Ki: < 0.02 µM
[2]
  IC50: < 0.02 µM

## COc1cc(C(=O)NC2(C(=O)NCc3ccc(-n4c(-c5noc(C)n5)c(Cl)c5ccccc54)cc3)CC2)on1 [Example 9, 3-Methoxy-isoxazole-5-carboxylic acid (1-{4-[3-chloro-2-(5-methyl-[1,2,4]oxadiazol-3-yl)-indol-1-yl]-benzylcarbamoyl}-cyclopropyl)-amide]
[1]
  Ki: < 0.02 µM
[2]
  IC50: < 0.02 µM

## Cc1ncc(C(=O)NC2(C(=O)NCc3ccc(-n4c(-c5noc(C)n5)c(Cl)c5ccccc54)cc3)CC2)cn1 [Example 185, 2-Methyl-pyrimidine-5-carboxylic acid (1-{4-[3-chloro-2-(5-methyl-[1,2,4]oxadiazol-3-yl)-indol-1-yl]-benzylcarbamoyl}-cyclopropyl)-amide]
[1]
  Ki: < 0.02 µM
[2]
  IC50: < 0.02 µM

## COC(=O)c1c(Cl)c2c(F)cccc2n1-c1ccc(CNC(=O)C2(NC(=O)C(F)(F)F)CC2)cc1 [Example 69, 3-Chloro-4-fluoro-1-[4-({[1-(2,2,2-trifluoro-acetylamino)-cyclopropanecarbonyl]-amino}-methyl)-phenyl]-1H-indole-2-carboxylic acid methyl ester]
[1]
  Ki: 0.02 to 0.1 µM
[2]
  IC50: 0.02 to 0.1 µM

## Cc1nc(-c2c(Cl)c3ccccc3n2-c2ccc(CNC(=O)C3(NC(=O)c4ccnc(F)c4)CC3)cc2)no1 [Example 164, N-(1-{4-[3-Chloro-2-(5-methyl-[1,2,4]oxadiazol-3-yl)-indol-1-yl]-benzylcarbamoyl}-cyclopropyl)-2-fluoro-isonicotinamide]
[1]
  Ki: < 0.02 µM
[2]
  IC50: < 0.02 µM

## Cc1nc(-c2c(Cl)c3ccccc3n2-c2ccc(CNC(=O)C3(NC(=O)CC(F)(F)F)CC3)cc2)no1 [Example 163, 1-(3,3,3-Trifluoro-propionylamino)-cyclopropanecarboxylic acid 4-[3-chloro-2-(5-methyl-[1,2,4]oxadiazol-3-yl)-indol-1-yl]-benzylamide]
[1]
  Ki: < 0.02 µM
[2]
  IC50: < 0.02 µM

## COc1cc(C(=O)NC2(C(=O)NCc3ccc(-n4c(C(N)=O)c(Cl)c5ccccc54)cc3)CC2)on1 [Example 188, 3-Chloro-1-{4-[({1-[(3-methoxy-isoxazole-5-carbonyl)-amino]-cyclopropane-carbonyl}-amino)-methyl]-phenyl}-1H-indole-2-carboxylic acid amide]
[1]
  Ki: 0.02 to 0.1 µM
[2]
  IC50: < 0.02 µM

## COc1ccc2c(c1)cc(C#N)n2-c1ccc(CNC(=O)C2(NC(=O)c3cc(OC)no3)CC2)cc1 [Example 48, 3-Methoxy-isoxazole-5-carboxylic acid {1-[4-(2-cyano-5-methoxy-indol-1-yl)-benzylcarbamoyl]-cyclopropyl}-amide]
[1]
  Ki: < 0.02 µM
[2]
  IC50: < 0.02 µM

## Cc1nc(-c2c(Cl)c3ccccc3n2-c2ccc(CNC(=O)C3(NC(=O)Cc4ccsc4)CC3)cc2)no1 [Example 147, 1-(2-Thiophen-3-yl-acetylamino)-cyclopropanecarboxylic acid 4-[3-chloro-2-(5-methyl-[1,2,4]oxadiazol-3-yl)-indol-1-yl]-benzylamide]
[1]
  Ki: 0.1 to 0.5 µM
[2]
  IC50: 0.02 to 0.1 µM

## COc1cc(C(=O)NC2(C(=O)NCc3ccc(-n4c(-c5noc(C)n5)cc5cc(Cl)ccc54)cc3)CC2)on1 [Example 53, 3-Methoxy-isoxazole-5-carboxylic acid (1-{4-[5-chloro-2-(5-methyl-[1,2,4]oxadiazol-3-yl)-indol-1-yl]-benzylcarbamoyl}-cyclopropyl)-amide]
[1]
  Ki: < 0.02 µM
[2]
  IC50: < 0.02 µM

## Cc1cc(C(=O)NC2(C(=O)NCc3ccc(-n4c(-c5noc(C)n5)c(Cl)c5ccccc54)cc3)CC2)n[nH]1 [Example 152, 5-Methyl-1H-pyrazole-3-carboxylic acid (1-{4-[3-chloro-2-(5-methyl-[1,2,4]oxadiazol-3-yl)-indol-1-yl]-benzylcarbamoyl}-cyclopropyl)-amide]
[1]
  Ki: < 0.02 µM
[2]
  IC50: 0.02 to 0.1 µM

## COc1cc(C(=O)NC2(C(=O)NCc3ccc(-n4c(-c5nnn(C)n5)c(Cl)c5cc(F)ccc54)cc3F)CC2)on1 [Example 20, 3-Methoxy-isoxazole-5-carboxylic acid (1-{4-[3-chloro-5-fluoro-2-(2-methyl-2H-tetrazol-5-yl)-indol-1-yl]-2-fluoro-benzylcarbamoyl}-cyclopropyl)-amide]
[1]
  Ki: < 0.02 µM
[2]
  IC50: < 0.02 µM

## C#CCCC(=O)NC1(C(=O)NCc2ccc(-n3c(-c4noc(C)n4)c(Cl)c4ccccc43)cc2)CC1 [Example 139, 1-Pent-4-ynoylamino-cyclopropanecarboxylic acid 4-[3-chloro-2-(5-methyl-[1,2,4]oxadiazol-3-yl)-indol-1-yl]-benzylamide]
[1]
  Ki: < 0.02 µM
[2]
  IC50: < 0.02 µM

## N#Cc1cc2cc(Cl)ccc2n1-c1ccc(CNC(=O)C2(NC(=O)c3cncc(C(F)(F)F)c3)CC2)cc1 [Example 100, N-{1-[4-(5-Chloro-2-cyano-indol-1-yl)-benzylcarbamoyl]-cyclopropyl}-5-trifluoromethyl-nicotinamide]
[1]
  Ki: < 0.02 µM
[2]
  IC50: < 0.02 µM

## Cc1cccc(C(=O)NC2(C(=O)NCc3ccc(-n4c(-c5noc(C)n5)c(Cl)c5ccccc54)cc3)CC2)c1 [Example 179, N-(1-{4-[3-Chloro-2-(5-methyl-[1,2,4]oxadiazol-3-yl)-indol-1-yl]-benzylcarbamoyl}-cyclopropyl)-3-methyl-benzamide]
[1]
  Ki: < 0.02 µM
[2]
  IC50: 0.02 to 0.1 µM

## Cc1nc(-c2c(Cl)c3ccccc3n2-c2ccc(CNC(=O)C3(NC(=O)c4cccc(C(F)(F)F)c4)CC3)cc2)no1 [Example 177, N-(1-{4-[3-Chloro-2-(5-methyl-[1,2,4]oxadiazol-3-yl)-indol-1-yl]-benzylcarbamoyl}-cyclopropyl)-3-trifluoromethyl-benzamide]
[1]
  Ki: 0.02 to 0.1 µM
[2]
  IC50: < 0.02 µM

## Cc1cnc(C(=O)NC2(C(=O)NCc3ccc(-n4c(-c5noc(C)n5)c(Cl)c5cc(Cl)ccc54)cc3)CC2)cn1 [Example 72, 5-Methyl-pyrazine-2-carboxylic acid (1-{4-[3,5-dichloro-2-(5-methyl-[1,2,4]oxadiazol-3-yl)-indol-1-yl]-benzylcarbamoyl}-cyclopropyl)-amide]
[1]
  Ki: < 0.02 µM
[2]
  IC50: < 0.02 µM

## Cc1cnc(C(=O)NC2(C(=O)NCc3ccc(-n4c(-c5nnn(C)n5)c(Cl)c5ccccc54)cc3)CC2)cn1 [Example 25, 5-Methyl-pyrazine-2-carboxylic acid (1-{4-[3-chloro-2-(2-methyl-2H-tetrazol-5-yl)-indol-1-yl]-benzylcarbamoyl}-cyclopropyl)-amide]
[1]
  Ki: < 0.02 µM
[2]
  IC50: 0.02 to 0.1 µM
